# Laboratory results taken from patent publication US10131675B2 (Genentech, Inc., priority 2015, dated 2018).
# Target: DLK (Homo sapiens (Human), UniProt Q12852)
# Assay: DLK TR-FRET Inhibition Assay
# Format: biochemical
# Settings: N-terminally GST-tagged DLK (catalytic domain amino acid 1-520), MKK4 K131M substrate, 30 μM ATP; read-out: DLK HTRF Ki
# Summary of the method: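 GST-tagged DLK catalytic domain (aa 1-520, 5 nM) phosphorylates 40 nM HIS-tagged MKK4 K131M with 30 μM ATP, pH 7.5, 60 min at ambient temperature; compounds 1:3 serial from 20 uM. Phospho-MKK4 detected by TR-FRET (Eu-cryptate anti-phospho-MKK4/D2 anti-HIS) after 3 h.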
# Sequence of DLK (Q12852 1-520): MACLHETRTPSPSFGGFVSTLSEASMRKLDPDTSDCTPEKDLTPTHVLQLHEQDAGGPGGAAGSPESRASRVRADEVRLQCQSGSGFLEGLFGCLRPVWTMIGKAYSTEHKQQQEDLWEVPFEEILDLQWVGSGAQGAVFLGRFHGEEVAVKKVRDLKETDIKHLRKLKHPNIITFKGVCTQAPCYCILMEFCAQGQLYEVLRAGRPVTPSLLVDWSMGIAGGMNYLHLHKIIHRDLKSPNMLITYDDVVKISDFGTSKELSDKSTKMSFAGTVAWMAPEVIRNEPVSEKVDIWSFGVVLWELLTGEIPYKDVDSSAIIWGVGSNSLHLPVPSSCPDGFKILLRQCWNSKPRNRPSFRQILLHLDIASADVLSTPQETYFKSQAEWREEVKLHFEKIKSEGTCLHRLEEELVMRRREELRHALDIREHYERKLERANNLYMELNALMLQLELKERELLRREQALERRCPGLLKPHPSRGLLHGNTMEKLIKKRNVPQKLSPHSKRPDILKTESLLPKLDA
row,Compound,Ki [nM]
1,"Nc1ncc(-c2nc(C3CC3)c3nc4n(c3n2)CCOC42CCC2)cn1 [Example 115, 5-(4-cyclopropyl-8,9-dihydrospiro[[1,4]oxazino[4,3-e]purine-6,1′-cyclobutan]-2-yl)pyrimidin-2-amine]",226
2,CCN(c1nc(-c2cnc(N)nc2)nc2c1nc1n2CCOC1(C)C)C1CC1 [Example 117],0.39
3,"CC1(C)OCCn2c1nc1c(C3CC3)nc(-c3cnc(N)c(OC(F)F)c3)nc12 [Example 119, 5-(4-cyclopropyl-6,6-dimethyl-8,9-dihydro-6H-[1,4]oxazino[4,3-e]purin-2-yl)-3-(difluoromethoxy)pyridin-2-amine]",34.3
4,CC1(C)OCCn2c1nc1c(C3CC3)nc(-c3cnc(N)nc3)cc12 [Example 120],359
5,"CC1(C)OCCn2c1nc1c(NC3CCCC3)nc(-c3cnc(N)nc3)nc12 [Example 123, 2-(2-aminopyrimidin-5-yl)-N-cyclopentyl-6,6-dimethyl-8,9-dihydro-6H-[1,4]oxazino[4,3-e]purin-4-amine]",60.1
6,"CN(C)c1nc(-c2cnc3[nH]cc(C#N)c3c2)nc2c1nc1n2CCCOC1 [Example 128, 5-(4-(dimethylamino)-6,8,9,10-tetrahydro-[1,4]oxazepino[4,3-e]purin-2-yl)-1H-pyrrolo[2,3-b]pyridine-3-carbonitrile]",17.9
7,"CN(C)c1nc(-c2cnc3[nH]cc(C(F)(F)F)c3c2)nc2c1nc1n2CCCOC1 [Example 129, N,N-dimethyl-2-(3-(trifluoromethyl)-1H-pyrrolo[2,3-b]pyridin-5-yl)-6,8,9,10-tetrahydro-[1,4]oxazepino[4,3-e]purin-4-amine]",1.64
8,"COC1CN(c2nc(-c3cnc4[nH]cc(C(F)(F)F)c4c3)nc3c2nc2n3CCOCC2)C1 [Example 131, 4-(3-methoxyazetidin-1-yl)-2-(3-(trifluoromethyl)-1H-pyrrolo[2,3-b]pyridin-5-yl)-6,7,9,10-tetrahydro-[1,4]oxazepino[4,5-e]purine]",60.7
9,"CC1(C)OCCCn2c1nc1c(N3CCCC3)nc(-c3cnc(N)nc3)nc12 [Example 134, 5-(6,6-dimethyl-4-(pyrrolidin-1-yl)-6,8,9,10-tetrahydro-[1,4]oxazepino[4,3-e]purin-2-yl)pyrimidin-2-amine]",210
10,"Nc1ncc(-c2nc(N3CC4CC3C4)c3nc4n(c3n2)CCCOC4)cc1OC(F)F [Example 135, 5-(4-(2-azabicyclo[2.1.1]hexan-2-yl)-6,8,9,10-tetrahydro-[1,4]oxazepino[4,3-e]purin-2-yl)-3-(difluoromethoxy)pyridin-2-amine]",30.8
11,"COC1CN(c2nc(-c3cnc(N)c(OC(F)F)c3)nc3c2nc2n3CCCOC2)C1 [Example 136, 3-(difluoromethoxy)-5-(4-(3-methoxyazetidin-1-yl)-6,8,9,10-tetrahydro-[1,4]oxazepino[4,3-e]purin-2-yl)pyridin-2-amine]",687
12,COC1CN(c2nc(-c3cnc4[nH]cc(C(F)(F)F)c4c3)nc3c2nc2n3CCCOC2)C1 [Example 145],6.49
13,CC1(C)OCCn2c1nc1c(C3CC3)nc(-c3cnc(N)c(OC(F)F)c3)cc12 [Example 148],56.9
14,C[C@H]1Cn2c(nc3c(N4CC5CC4C5)nc(-c4cnc(N)nc4)nc32)[C@@H](C)O1 [Example 151],120
15,C[C@@H]1O[C@@H](C)Cn2c1nc1c(N3CC4CC3C4)nc(-c3cnc(N)nc3)nc12 [Example 153],261
16,CC(Oc1nc(-c2cnc(N)nc2)nc2c1nc1n2CCOC1(C)C)C1CC1 (stereo not shown) [Example 155],1200
17,CC1(C)OCCn2c1nc1c(N3CCC4(CCCO4)C3)nc(-c3cnc(N)nc3)nc12 (stereo not shown) [Example 156],1300

# Further lines, results first:
row,Ki [nM],Compound
1,21.3,"CC1(C)OCCn2c1nc1c(N3CC4CC3C4)nc(-c3cnc(N)nc3)cc12 [Example 116, 5-(9-(2-azabicyclo[2.1.1]hexan-2-yl)-1,1-dimethyl-3,4-dihydro-1H-pyrido[3′,4′:4,5]imidazo[2,1-c][1,4]oxazin-7-yl)pyrimidin-2-amine]"
2,1200,"CC1(C)OCCn2c1nc1c(N3CC4CC3C4)nc(-c3cnc(N)cn3)cc12 [Example 118, 5-(9-(2-azabicyclo[2.1.1]hexan-2-yl)-1,1-dimethyl-3,4-dihydro-1H-pyrido[3′,4′:4,5]imidazo[2,1-c][1,4]oxazin-7-yl)pyrazin-2-amine]"
3,5.48,Cc1c[nH]c2ncc(-c3nc(C4CC4)c4nc5n(c4n3)CCOC5(C)C)cc12 [Example 121]
4,307,CC1(C)OCCn2c1nc1c(C3CC3)nc(-c3cnc(N)nc3)nc12 [Example 122]
5,73.9,CC1(C)OCCn2c1nc1c(NC3CCC3)nc(-c3cnc(N)nc3)nc12 [Example 124]
6,626,"CC1(C)OCCn2c1nc1c(C3CC3)nc(-c3cnc4c(c3)CCN4)nc12 [Example 125, 4-cyclopropyl-2-(2,3-dihydro-1H-pyrrolo[2,3-b]pyridin-5-yl)-6,6-dimethyl-8,9-dihydro-6H-[1,4]oxazino[4,3-e]purine]"
7,264,"CC1(C)OCCn2c1nc1c(C3CC3)nc(-c3cnc(N)c(C#N)c3)nc12 [Example 126, 2-amino-5-(4-cyclopropyl-6,6-dimethyl-8,9-dihydro-6H-[1,4]oxazino[4,3-e]purin-2-yl)nicotinonitrile]"
8,150,"CC1(C)OCCn2c1nc1c(C3CC3)nc(-c3cnc(N)c4nc[nH]c34)nc12 [Example 127, 7-(4-cyclopropyl-6,6-dimethyl-8,9-dihydro-6H-[1,4]oxazino[4,3-e]purin-2-yl)-1H-imidazo[4,5-c]pyridin-4-amine]"
9,281,"Nc1ncc(-c2nc(N3CC4CC3C4)c3nc4n(c3n2)CCCOC4)cn1 [Example 132, 5-(4-(2-azabicyclo[2.1.1]hexan-2-yl)-6,8,9,10-tetrahydro-[1,4]oxazepino[4,3-e]purin-2-yl)pyrimidin-2-amine]"
10,447,"Nc1ncc(-c2nc(N3CC4CC3C4)c3nc4n(c3n2)CCOCC4)cn1 [Example 133, 5-(4-(2-azabicyclo[2.1.1]hexan-2-yl)-6,7,9,10-tetrahydro-[1,4]oxazepino[4,5-e]purin-2-yl)pyrimidin-2-amine]"
11,177,"CC1(C)OCCCn2c1nc1c(N3CC4CC3C4)nc(-c3cnc(N)nc3)nc12 [Example 137, 5-(4-(2-azabicyclo[2.1.1]hexan-2-yl)-6,6-dimethyl-6,8,9,10-tetrahydro-[1,4]oxazepino[4,3-e]purin-2-yl)pyrimidin-2-amine]"
12,2.23,CC1(C)OCCn2c1nc1c(N3CC4CC3C4)nc(-c3cnc(N)c(C#N)c3)cc12 [Example 144]
13,32.2,CC1(C)OCCn2c1nc1c(N3CC4CC3C4)nc(-c3cnc4[nH]cnc4c3)nc12 [Example 146]
14,39.5,CC1(C)OCCn2c1nc1c(N3CC4CCC3C4)nc(-c3cnc4[nH]cnc4c3)nc12 (stereo not shown) [Example 147]
15,73.7,COC1CN(c2nc(-c3cnc(N)c(OC(F)F)c3)nc3c2nc2n3CCOC2(C)C)C1 [Example 149]
16,112,CC1(C)OCCn2c1nc1c(N3CC4CC3C4)nc(-c3cnc(N)c(C(F)(F)F)c3)nc12 [Example 150]
17,183,CC1(C)OCCn2c1nc1c(N3CC(C#N)C3)nc(-c3cnc4[nH]cc(F)c4c3)nc12 [Example 152]
